Laboratory results as given in patent US4557934A, “Penetrating topical pharmaceutical compositions containing 1-dodecyl-azacycloheptan-2-one” (priority 1983, dated 1985).

Legend:
[1] = Penetration study through human skin, Franz diffusion apparatus; type: in vitro ADME; details: for reduction of penetration on addition, in words (compared with octanoic acid): Example 8
Text: EtOH is ethanol. The term mcg=microgram.

[2] = clindamycin phosphate, erythromycin base, fusidate sodium, fluorouracil, desonide, amcinonide and triamcinolone acetonide; cited from earlier work
rats = details: cited from earlier work

Q: Which “reduction of penetration on addition, in words (compared with octanoic acid)” value (shortened to “reduction … (compared with octanoic acid)”) [1] does the source give for `CCCCCCCCCCCCCCCCCCO` [steryl alcohol] here?
A: The value was “Substantially similar results”.

Q: Which “reduction … (compared with octanoic acid)” value [1] does the source give for `CCCCCCCCCC(=O)O` [decanoic acid] here?
A: The value was “Substantially similar results”.

Q: For `CCCCCCCCCCCCCCCCO` [cetyl alcohol], which “reduction … (compared with octanoic acid)” value [1] is on record?
A: Its value is “Substantially similar results”.

Q: Which results are given for `CCCCCCCCCCCCN1CCCCCC1=O` [Azone, 1-dodecyl-azacycloheptan-2-one]?
A: enhancement of cutaneous penetration [2]: enhance the cutaneous penetration; order of toxicity (rats; rat, in vivo): low order of toxicity; lethal dose for 50% survival (LD50) (rats; rats): about 8 g/kg

Q: Which “reduction of penetration on addition to triamcinolone / propylene glycol / C14 OH composition” value ([1]; Example 8, 0-72 hrs, 4% octanoic acid) does the source give for `CCCCCCCC(=O)O` [octanoic acid] here?
A: Its value is 50%.
